“Also recorded” adds a separate entry of the source.

We go through two molecules from patent US20190030053A1, “COMPOSITION FOR INCREASING EXPRESSION OF PGC-1alpha” (BENEBIOSIS CO., LTD., priority 2016, published 2019).

Experiment [1] deals with Huntington's disease model mice (R6/2). Kind of experiment: Rotarod travel test in Huntington's disease models. It counts as in vivo, mouse. The note with it: R6/2 mice, oral 0.1 mg/kg/day. An excerpt:
In order to investigate the changes in gene expression and cognitive ability by the treatment with SL (3′-SL & 6′-SL) compositions in Huntington's brain disease model, 4-week-old mice were purchased from Central Lab Animal (Korea). Water was freely accessible, and a commercially available pellet feed (Dooyeul Biotech, Korea) was given for one week. At 5 weeks of age, the mice were divided into three groups (composed of eight mice for each group): Eight 5-week-old male c57/BL6 mice (normal mice; initial body weight, average 25.3±4.3 g) treated with a normal diet were used for a control group. […]
In addition, the behavior improvement was evaluated through the rotarod travel time changes of the (Huntington's disease model) group, (Huntington's disease model+3′-SL) group, and (Huntington's disease model+6′-SL) group, compared with the normal mouse with a normal diet. […] The rotarod travel time was measured by using a rotarod device (rod accelerating at a revolution speed of 4-40 rpm through 3 minutes, Jungdo Instruments, Korea). After 4-week-old mice were practiced on the rotarod test, the rotarod test was performed from 5 weeks of age, and the mean time to fall was measured. […]

The subject of experiment [2] is ob mouse (C57BL/6J-ob/ob) models. Kind of experiment: Topical fat removal by meso roller administration in ob mouse models. It is filed as in vivo. The note with it: 0.1 M SL, meso roller on day 0 and day 4, observed on day 7. The procedure:
In addition, in the ob mouse (C57BL/6J-ob/ob) models fed with a high-fat diet without SL treatment, the topical fat removal effect by SL (3′-SL & 6′-SL) administration using a meso roller (0.5 mm, INTO MR, Intomedi Inc.) was investigated. Specifically, the hairs on the dorsal side of the […] were shaved, and 0.1 M SL in the saline buffer was applied to the skin, and was absorbed into the skin by rubbing with the meso roller. The control group was tested by the same method except that the buffer was used without SL. […] In FIG. 15, 3′-SL, 6′-SL, and CTL represent the 3′-SL administration group, the 6′-SL administration group, and the control group, respectively. After feeding with a high-fat diet for 10 weeks, SL (3′-SL & 6′-SL) compositions were topically administered on day 0 and day 4 using the meso roller, and then dermoscopy observation was conducted on day 7. The observation results are shown.

A further experiment relates to PGC-1α and related genes. Kind of experiment: Gene expression in muscle cell test (C2C12). The note with it: C2C12 immature muscle cells, 24 hours. It is filed as cell-based. The procedure:
C2C12 immature muscle cells were prepared from the purchase from American Tissue Culture Collection (ATCC, USA). The cells were cultured in Dulbecco's modified Eagle's medium (DMEM, Gibco, USA) supplemented with 10% fetal bovine serum (FBS, USA) in a 5% CO2 incubator at 37° C. until the cells grew to confluency of 70%, while the medium was exchanged every two days. The differentiation into muscle cells was induced by culturing in a medium containing 2% horse serum (HS, Gibco, USA). The muscle cells cultured in the medium containing 2% HS for 4 days were treated with SL with various concentrations. The negative control group was treated with physiological saline with 1/1000 of the volume of the medium. The cells treated with each sample were incubated at 37° C. for 24 hours, and then washed twice with cool saline solution, and RNA was extracted using TRIzol agent (Invitrogen). cDNA was synthesized by using 1 μg/μl of RNA, which has been extracted as above and quantified, and a reverse transcription system (Promega, USA).
The expression patterns of PGC-1α and related genes were measured by using pre-designed primers and probes (Applied Biosystems; PGC-1α, Mm00447181_m1, GAPDH, and Mm99999915_q1) for the synthesized cDNA and analysis targets (Fndc5, PGC-1α, Erra, UCP1, SOD2, and GPX1). […]

As for `CC(=O)N[C@H]1[C@H]([C@H](O)[C@H](O)CO)O[C@@](OC[C@H]2O[C@@H](O[C@H]3[C@H](O)[C@@H](O)[C@H](O)O[C@@H]3CO)[C@H](O)[C@@H](O)[C@H]2O)(C(=O)O)C[C@@H]1O` [6′-SL, α-NeuNAc-(2→6)-β-D-Gal-(1→4)-D-Glc], the “rotarod travel time vs SL non-administration group” value in experiment [1] is “increased”. Besides, the “topical fat removal (dermoscopy) vs negative control portion” value in experiment [2] is on record as “topical fat was removed”. Besides, the “expression levels of analysis targets (Fndc5, PGC-1α, Erra, UCP1, BDNF, SOD2, GPX1) vs negative control” value with PGC-1α and related genes is listed as “significant increases”.

In the case of `CC(=O)N[C@H]1[C@H]([C@H](O)[C@H](O)CO)O[C@@](O[C@H]2[C@@H](O)[C@@H](CO)O[C@@H](O[C@H]3[C@H](O)[C@@H](O)C(O)O[C@@H]3CO)[C@@H]2O)(C(=O)O)C[C@@H]1O` (stereo partly drawn) [3′-SL, α-NeuNAc-(2→3)-β-D-Gal-(1→4)-D-Glc], the “rotarod travel time vs SL non-administration group” value in experiment [1] was “less than that of 6′-SL”. For the same molecule, the “topical fat removal (dermoscopy) vs negative control portion” value in experiment [2] is “relatively low compared with 6′-SL”. Besides, the “expression levels of analysis targets (Fndc5, PGC-1α, Erra, UCP1, BDNF, SOD2, GPX1) vs negative control” value in the experiment with PGC-1α and related genes was “significant increases; also recorded: lower than that of 6′-SL”.
